Assay results reported in patent US8940731B2, “Substituted pyridyl amide compounds as modulators of the histamine H3 receptor” (Janssen Pharmaceutica NV, priority 2006, dated 2015).

Experiments:
[1] = target: T1, cloned human H3 receptors (Homo sapiens, UniProt Q9Y5N1); assay: H3 Receptor Binding (Human); conditions: cloned human H3 receptors stably expressed in SK-N-MC cells; average of the results obtained; read-out: Human H3 Ki
T1 construct: expressed in transfected cells
Experimental: H3 Receptor Binding (Human)
Binding of compounds to the cloned human H3 receptors, stably expressed in SK-N-MC cells, was performed as described by Barbier, A. J. et al. (Br. J. Pharmacol. 2004, 143(5), 649-661).

Rat H3 [2] = target: T2, Rat H3 (Rattus norvegicus, UniProt Q9QYN8); assay: H3 Receptor Binding (Rat); conditions: rat brain membranes without cerebellum, 0.8 nM N-[3H]-α-methylhistamine, 60 min at 25° C.; average of the results obtained
Experimental: H3 Receptor Binding (Rat)
A rat brain without cerebellum (Zivic Laboratories Inc., Pittsburgh, Pa.) was homogenized in 50 mM Tris-HCl/5 mM EDTA and centrifuged at 1,000 rpm for 5 min. The supernatant was removed and recentrifuged at 15,000 rpm for 30 min. Pellets were rehomogenized in 50 mM Tris/5 mM EDTA (pH 7.4). Membranes were incubated with 0.8 nM N-[^3H]-α-methylhistamine plus/minus test compounds for 60 min at 25° C. and harvested by rapid filtration over GF/C glass fiber filters (pretreated with 0.3% polyethylenimine) followed by four washes with buffer. Nonspecific binding was defined in the presence of 100 μM histamine.
Target sequence in this assay (Q9QYN8 1-397 isoform Q9QYN8-3): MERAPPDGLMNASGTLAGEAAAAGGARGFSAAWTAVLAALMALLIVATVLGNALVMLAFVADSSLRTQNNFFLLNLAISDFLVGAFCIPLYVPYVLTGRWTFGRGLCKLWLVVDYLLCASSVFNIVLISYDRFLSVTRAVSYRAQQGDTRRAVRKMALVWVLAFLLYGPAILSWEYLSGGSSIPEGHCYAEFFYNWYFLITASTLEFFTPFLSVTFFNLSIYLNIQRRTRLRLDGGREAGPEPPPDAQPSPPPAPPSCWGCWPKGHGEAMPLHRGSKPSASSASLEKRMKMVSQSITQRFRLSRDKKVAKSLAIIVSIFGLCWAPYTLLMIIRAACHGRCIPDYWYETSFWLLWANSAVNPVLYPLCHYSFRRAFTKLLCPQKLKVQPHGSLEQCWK

human H3 receptor = target: T3, human H3 receptor (Homo sapiens, UniProt Q9Y5N1); assay: Cyclic AMP Accumulation (human H3 receptor); assay type: cell-based
T3 construct: expressed in transfected cells; host or cells: SK-N-MC sublines with a reporter construct
Source text: (§1) Sublines of SK-N-MC cells were created that expressed a reporter construct and either the human or rat H3 receptor.

Rat H3 [3] = target: T2, Rat H3; assay: cell-based
Source text: as §1
Target sequence in this assay (Q9QYN8 whole entry): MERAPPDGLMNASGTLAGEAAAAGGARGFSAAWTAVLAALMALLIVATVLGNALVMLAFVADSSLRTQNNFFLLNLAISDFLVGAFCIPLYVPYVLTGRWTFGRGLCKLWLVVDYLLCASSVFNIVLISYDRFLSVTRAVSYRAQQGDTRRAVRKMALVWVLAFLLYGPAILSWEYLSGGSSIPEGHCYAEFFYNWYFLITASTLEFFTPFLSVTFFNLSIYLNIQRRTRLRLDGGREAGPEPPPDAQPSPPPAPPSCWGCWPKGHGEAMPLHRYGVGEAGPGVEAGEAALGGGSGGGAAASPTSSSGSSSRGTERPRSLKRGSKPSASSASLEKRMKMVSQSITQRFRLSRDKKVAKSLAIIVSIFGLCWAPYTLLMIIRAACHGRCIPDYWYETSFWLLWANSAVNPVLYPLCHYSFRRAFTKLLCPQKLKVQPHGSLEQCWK

T3 sequence (Q9Y5N1 whole entry): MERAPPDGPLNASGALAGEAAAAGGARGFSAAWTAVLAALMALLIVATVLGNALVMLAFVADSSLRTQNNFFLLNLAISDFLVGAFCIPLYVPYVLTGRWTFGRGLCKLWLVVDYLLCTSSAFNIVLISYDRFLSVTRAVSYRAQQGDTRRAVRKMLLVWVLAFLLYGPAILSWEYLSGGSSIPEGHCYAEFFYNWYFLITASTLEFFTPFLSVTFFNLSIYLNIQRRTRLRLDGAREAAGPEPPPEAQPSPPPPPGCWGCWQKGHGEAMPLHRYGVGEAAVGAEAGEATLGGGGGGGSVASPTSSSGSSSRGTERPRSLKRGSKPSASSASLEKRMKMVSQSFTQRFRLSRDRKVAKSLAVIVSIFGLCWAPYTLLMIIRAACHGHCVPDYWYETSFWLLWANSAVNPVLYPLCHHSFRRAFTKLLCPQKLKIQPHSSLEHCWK
T1 sequence (Q9Y5N1 whole entry): as above

SMILES | Ki [1] | Ki (Rat H3 [2]) | Kb (human H3 receptor) | Kb (Rat H3 [3])
O=C(c1ccc(Oc2ccccc2F)nc1)N1CCCN(C2CC2)CC1 [Example 31, (4-Cyclopropyl-[1,4]diazepan-1-yl)-[6-(2-fluoro-phenoxy)-pyridin-3-yl]-methanone] | 4 nM | 39 nM | 2.4 nM | 7.59 nM
O=C(c1ccc(Oc2ccc(F)cc2F)nc1)N1CCCN(C2CCC2)CC1 [Example 30, (4-Cyclobutyl-[1,4]diazepan-1-yl)-[6-(2,4-difluoro-phenoxy)-pyridin-3-yl]-methanone] | 1 nM | 26 nM | 0.537 nM | 4.17 nM
